Reference: patent publication US7754705B2, “Cationic steroid antimicrobial compositions and methods of use” (priority 2006, dated 2010)
Read-outs that look alike come from different tables or passages of the source.

Legend:
vaccinia virus [1] = type: cell-based, vaccinia virus; human keratinocytes (HaCaT)
vaccinia virus [2] = test system: vaccinia virus
vaccinia virus [3] = assay: microbe, parasite or virus in culture; conditions: Orthopoxvirus vaccinia, BSC-1, in Chlorocebus sabaeus, 24 h
vaccinia lipid envelope = type: binding, vaccinia virus; keratinocytes

Row | Structure (SMILES) | activity against vaccinia virus (vaccinia gene expression) (vaccinia virus [1]) | concentration at which significant viral killing was observed / compound was effective (vaccinia virus [2]) [µM] | % Viability (vaccinia virus [2]; 5 μM) [%] | % Viability (vaccinia virus [2]; 10 μM) [%] | % Viability (vaccinia virus [2]; 25 μM) [%] | % Viability (vaccinia virus [2]; 50 μM) [%] | % Viability (vaccinia virus [2]; 100 μM) [%] | viability at 5 µM (vaccinia virus [3]) [%] | viability at 10 µM (vaccinia virus [3]) [%] | viability at 25 µM (vaccinia virus [3]) [%] | viability at 50 µM (vaccinia virus [3]) [%] | viability at 100 µM (vaccinia virus [3]) [%] | effectiveness in killing vaccinia virus (in words) (vaccinia virus [2]) | incorporation into vaccinia lipid envelope versus keratinocyte membrane (vaccinia lipid envelope) | % Viability (vaccinia virus [2]; 1 μM) [%]
1 | CCCCCCCCOCCCC(C)C1CCC2C3C(OCCCN)CC4CC(OCCCN)CCC4(C)C3CC(OCCCN)C12C (stereo not drawn) [CSA-7] | most effective | 5 | 0.56 | 0.00 | 0.00 | 0.00 | 0.00 |  |  |  |  |  |  |  | 
2 | CC(CCCO)C1CCC2C3C(OCCCN)CC4CC(OCCCN)CCC4(C)C3CC(OCCCN)C12C (stereo not drawn) [CSA-8] |  |  | 61.87 | 28.79 | 4.67 | 2.33 | 1.56 |  |  |  |  |  |  |  | 
3 | CC(O)[C@H]1CC[C@H]2[C@@H]3[C@H](OCCCN)C[C@@H]4C[C@H](OCCCN)CC[C@]4(C)[C@H]3C[C@H](OCCCN)[C@]12C (stereo partly drawn) [CSA-11] |  |  |  |  |  |  |  | 84.2 | 92.9 | 100 | 97.3 | 98.4 |  |  | 
4 | CCCCCCCCNCCC[C@@H](C)[C@H]1CC[C@H]2[C@@H]3[C@H](OCCCN)C[C@@H]4C[C@H](OCCCN)CC[C@]4(C)[C@H]3C[C@H](OCCCN)[C@]12C [CSA-13] | most effective |  | 37.50 | 8.82 | 3.31 | 0.00 | 0.00 |  |  |  |  |  |  |  | 
5 | CC(CCCN)C1CCC2C3C(OCCCN)CC4CC(OCCCN)CCC4(C)C3CC(OCCCN)C12C (stereo not drawn) [CSA-15] |  |  | 98.88 | 93.68 | 101.49 | 97.40 | 65.80 |  |  |  |  |  |  |  | 
6 | CCCOCCCC(C)C1CCC2C3C(OCCCN)CC4CC(OCCCN)CCC4(C)C3CC(OCCCN)C12C (stereo not drawn) [CSA-17] |  |  | 53.18 | 19.48 | 3.00 | 0.00 | 0.00 |  |  |  |  |  |  |  | 
7 | CC(CCCOS(=O)(=O)O)C1CCC2C3C(OCCCN)CC4CC(OCCCN)CCC4(C)C3CC(OCCCN)C12C (stereo not drawn) [CSA-21] |  |  | 100.00 | 71.76 | 40.39 | 14.12 | 4.31 |  |  |  |  |  |  |  | 
8 | CC(CCCOCCCN)C1CCC2C3C(OCCCN)CC4CC(OCCCN)CCC4(C)C3CC(OCCCN)C12C (stereo not drawn) [CSA-25] |  |  | 97.40 | 74.35 | 66.91 | 39.41 | 10.04 |  |  |  |  |  |  |  | 
9 | CC(CCCO)C1CCC2C3C(NC(=O)CCCCCN)CC4CC(NC(=O)CCCCCN)CCC4(C)C3CC(NC(=O)CCCCCN)C12C (stereo not drawn) [CSA-31] |  |  | 99.24 | 99.24 | 101.52 | 102.28 | 101.52 |  |  |  |  |  | little or no detectable activity |  | 
10 | CCCCCCCCNCCC[C@@H](C)[C@H]1CC[C@H]2[C@@H]3CC[C@@H]4C[C@H](OCCCN)CC[C@]4(C)[C@H]3C[C@H](OCCCN)[C@]12C [CSA-46] | most effective |  | 41.89 | 3.77 | 0.38 | 0.00 | 0.00 |  |  |  |  |  |  |  | 
11 | CC(CCCNCCCNCCCN)C1CCC2C3C(OCCCN)CC4CC(OCCCN)CCC4(C)C3CC(OCCCN)C12C (stereo not drawn) [CSA-54] |  |  | 103.91 | 101.12 | 95.53 | 101.12 | 95.53 |  |  |  |  |  | little or no detectable activity |  | 
12 | CC(CCCNC(=O)CCC(=O)c1ccc2cc(N(C)C)ccc2c1)C1CCC2C3C(OCCCN)CC4CC(OCCCN)CCC4(C)C3CC(OCCCN)C12C (stereo not drawn) [CSA-59] |  |  | 97.83 | 66.31 | 26.09 | 0.54 | 0.00 |  |  |  |  |  |  | preferentially incorporates into the vaccinia lipid envelope over the keratinocyte membrane with a high degree of selectivity | 
13 | CCCCCN(CCCCC)CCCC(C)C1CCC2C3C(OCCCN)CC4CC(OCCCN)CCC4(C)C3CC(OCCCN)C12C.Cl.Cl.Cl.Cl (stereo not drawn) [CSA-90] |  |  | 23.67 | 14.49 | 7.73 | 4.83 | 0.48 |  |  |  |  |  |  |  | 64.73
14 | CCCCCCCCN(CCCCCCCC)CCCC(C)C1CCC2C3C(OCCCN)CC4CC(OCCCN)CCC4(C)C3CC(OCCCN)C12C.Cl.Cl.Cl.Cl (stereo not drawn) [CSA-91] |  |  | 0.00 | 0.00 | 0.00 | 0.00 | 0.00 |  |  |  |  |  | most effective |  | 10.31
15 | CCCCCCCCCCCCCCCCNCCCC(C)C1CCC2C3C(OCCCN)CC4CC(OCCCN)CCC4(C)C3CC(OCCCN)C12C.Cl.Cl.Cl.Cl (stereo not drawn) [CSA-92] |  |  | 0.00 | 0.00 | 0.00 | 0.00 | 0.00 |  |  |  |  |  | most effective |  | 0.00
